Assay results taken from patent publication US20250230155A1 (Vanderbilt University, priority 2021, published 2025).

Molecular target: T1, human mAChR M4 (Homo sapiens, UniProt P08173)
T1 construct: expressed in transfected cells
T1 sequence (P08173 1-479): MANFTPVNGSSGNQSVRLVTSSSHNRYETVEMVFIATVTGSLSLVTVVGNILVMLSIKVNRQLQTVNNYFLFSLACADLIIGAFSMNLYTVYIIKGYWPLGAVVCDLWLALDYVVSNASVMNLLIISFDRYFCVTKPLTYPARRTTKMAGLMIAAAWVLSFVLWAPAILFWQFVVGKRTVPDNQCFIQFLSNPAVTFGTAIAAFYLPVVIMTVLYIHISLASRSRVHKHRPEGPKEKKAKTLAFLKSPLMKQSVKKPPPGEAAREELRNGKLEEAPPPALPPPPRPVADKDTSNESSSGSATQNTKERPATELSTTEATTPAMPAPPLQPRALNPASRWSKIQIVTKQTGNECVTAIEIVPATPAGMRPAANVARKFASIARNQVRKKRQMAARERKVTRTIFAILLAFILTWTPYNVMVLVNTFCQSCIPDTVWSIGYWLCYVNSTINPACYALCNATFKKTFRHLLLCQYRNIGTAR
Experiment: mAChR M4 cell-based functional assay (calcium mobilization, CHO-K1 hM4-Gqi5 cells)
Conditions: for Emax at 30 µM: CHO-K1, % ACh maximum at 30 μM, human M4; for EC50: positive allosteric modulator activity, increase in the EC20 acetylcholine response, CHO-K1 hM4-Gqi5 cells, read-out: Human M4 EC50
Method in brief: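 Fluorescent calcium read-out (Fluo-4 AM, FDSS, 1 Hz) in hM4-Gqi5 CHO-K1 cells, 11-point 1:3 compound series. Agonism scored on compound addition, PAM activity as increase of the 144 s EC20 acetylcholine response, antagonism as decrease of the 230 s EC80 response; four-parameter logistic fits give EC50 and Emax.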

Structure (SMILES)	Emax at 30 µM [%]	EC50 [nM]	Emax (CHO-K1) [%]
Cc1cc(C(=O)NCc2ccc(Cl)nc2Cl)cnc1N1CCc2ncc(-c3cn(C)nc3C)cc2C1 [Example 462, N-((2,6-dichloropyridin-3-yl)methyl)-6-(3-(1,3-dimethyl-1H-pyrazol-4-yl)-7,8-dihydro-1,6-naphthyridin-6(5H)-yl)-5-methylnicotinamide]	72	714	
Cc1c(C#N)nnc(N2CCc3ncc(-c4cccnc4C(F)(F)F)cc3C2)c1C [compound 50, 4,5-dimethyl-6-[3-[2-(trifluoromethyl)-3-pyridyl]-7,8-dihydro-5H-1,6-naphthyridin-6-yl]pyridazine-3-carbonitrile]	68	1790	
Fc1ccccc1Oc1cnc2c(c1)CN(c1nc(Cl)nc3c1COC3)CC2 [compound 290, 2-chloro-4-(3-(2-fluorophenoxy)-7,8-dihydro-1,6-naphthyridin-6(5H)-yl)-5,7-dihydrofuro[3,4-d]pyrimidine]		991	
Cc1cc(C#N)cnc1N1CCc2ncc(OCCCOc3ccccc3)cc2C1 [Example 432, 5-methyl-6-(3-(3-phenoxypropoxy)-7,8-dihydro-1,6-naphthyridin-6(5H)-yl)nicotinonitrile]	48	6800	
Cc1c(C#N)nnc(N2CCc3ncc(Nc4ncc(F)cc4F)cc3C2)c1C [compound 78, 6-[3-[(3,5-difluoro-2-pyridyl)amino]-7,8-dihydro-5H-1,6-naphthyridin-6-yl]-4,5-dimethyl-pyridazine-3-carbonitrile]	65	324	
Cc1cc(C(=O)N2CC(F)C2)nnc1N1CCc2ncc(Nc3ccnn3C)cc2C1 [Example 559, (3-fluoroazetidin-1-yl)(5-methyl-6-(3-((1-methyl-1H-pyrazol-5-yl)amino)-7,8-dihydro-1,6-naphthyridin-6(5H)-yl)pyridazin-3-yl)methanone]	73	64	
Cc1cc(C(=O)N2CC(F)(F)C2)nnc1N1CCc2ncc(Nc3ccnn3C)cc2C1 [Example 566, (3,3-difluoroazetidin-1-yl)(5-methyl-6-(3-((1-methyl-1H-pyrazol-5-yl)amino)-7,8-dihydro-1,6-naphthyridin-6(5H)-yl)pyridazin-3-yl)methanone]	73	41	
Cc1cc(C#N)nnc1N1CCc2ncc(Nc3ccncc3F)cc2C1 [Example 598, 6-(3-((3-fluoropyridin-4-yl)amino)-7,8-dihydro-1,6-naphthyridin-6(5H)-yl)-5-methylpyridazine-3-carbonitrile]	98	25	
Cc1cc(C(=O)N2CC(C(F)F)C2)nnc1N1CCc2ncc(Nc3ccnn3C)cc2C1 [Example 558, (3-(difluoromethyl)azetidin-1-yl)(5-methyl-6-(3-((1-methyl-1H-pyrazol-5-yl)amino)-7,8-dihydro-1,6-naphthyridin-6(5H)-yl)pyridazin-3-yl)methanone]	90	101	
Cc1cc(C(=O)N2CCCC2)nnc1N1CCc2ncc(N3CCCn4nccc43)cc2C1 [Example 488, (6-(3-(6,7-dihydropyrazolo[1,5-a]pyrimidin-4(5H)-yl)-7,8-dihydro-1,6-naphthyridin-6(5H)-yl)-5-methylpyridazin-3-yl)(pyrrolidin-1-yl)methanone]	89	217	
Cc1cc(C(=O)NC2CC2)cnc1N1CCc2ncccc2C1 [compound 64, N-cyclopropyl-6-(7,8-dihydro-5H-1,6-naphthyridin-6-yl)-5-methyl-pyridine-3-carboxamide]	59	≥ 10000	
Cc1cc2n(n1)CCCN2c1cnc2c(c1)CN(c1nnc(C#N)c(C)c1C)CC2 [Example 363, 4,5-dimethyl-6-(3-(2-methyl-6,7-dihydropyrazolo[1,5-a]pyrimidin-4(5H)-yl)-7,8-dihydro-1,6-naphthyridin-6(5H)-yl)pyridazine-3-carbonitrile]	90	148	
Cc1nc(C(=O)N2CCOCC2)c(C)c(N2CCc3ncc(C(F)(F)F)cc3C2)n1 [compound 221, (2,5-dimethyl-6-(3-(trifluoromethyl)-7,8-dihydro-1,6-naphthyridin-6(5H)-yl)pyrimidin-4-yl)(morpholino)methanone]	25	≥ 10000	
Cc1cc(C#N)cnc1N1Cc2cc(C(F)(F)F)cnc2CC1C (centres unmarked) [Example 366, 5-methyl-6-(7-methyl-3-(trifluoromethyl)-7,8-dihydro-1,6-naphthyridin-6(5H)-yl)nicotinonitrile]	96	305	
Cc1cc(C#N)cnc1N1CCc2ncc(OCCOC3CCCC3)cc2C1 [Example 433, 6-(3-(2-(cyclopentyloxy)ethoxy)-7,8-dihydro-1,6-naphthyridin-6(5H)-yl)-5-methylnicotinonitrile]	74	897	
Cc1c(Cl)nc(C(F)(F)F)nc1N1CCc2ncc(Nc3ccnn3C)cc2C1 [compound 247, 6-(6-chloro-5-methyl-2-(trifluoromethyl)pyrimidin-4-yl)-N-(1-methyl-1H-pyrazol-5-yl)-5,6,7,8-tetrahydro-1,6-naphthyridin-3-amine]	91	764	
Cc1cc(C(=O)N2CC(c3cccnc3)C2)nnc1N1CCc2ncc(-n3cccn3)cc2C1 [Example 535, (6-(3-(1H-pyrazol-1-yl)-7,8-dihydro-1,6-naphthyridin-6(5H)-yl)-5-methylpyridazin-3-yl)(3-(pyridin-3-yl)azetidin-1-yl)methanone]	84	85	
Cc1nc(Cl)c(C)c(N2CCc3ncc(Nc4cccnc4F)cc3C2)n1 [compound 251, 6-(6-chloro-2,5-dimethylpyrimidin-4-yl)-N-(2-fluoropyridin-3-yl)-5,6,7,8-tetrahydro-1,6-naphthyridin-3-amine]	93	197	
Cc1cc(C#N)cnc1N1CCc2ncccc2C1 [compound 45, 6-(7,8-dihydro-5H-1,6-naphthyridin-6-yl)-5-methyl-pyridine-3-carbonitrile]		1190	97
Cc1nn(C)cc1-c1cnc2c(c1)CN(c1nc(C(F)(F)F)nc(Cl)c1C)CC2 [compound 245, 6-(6-chloro-5-methyl-2-(trifluoromethyl)pyrimidin-4-yl)-3-(1,3-dimethyl-1/-pyrazol-4-yl)-5,6,7,8-tetrahydro-1,6-naphthyridine]	56	641	
Cc1cc(C(=O)NC23CC(F)(C2)C3)cnc1N1CCc2ncccc2C1 [compound 124, 6-(7,8-dihydro-5H-1,6-naphthyridin-6-yl)-N-(3-fluoro-1-bicyclo[1.1.1]pentanyl)-5-methyl-pyridine-3-carboxamide]	78	2170	
Cc1c(C#N)nnc(N2CCc3ncc(-c4cccnc4)cc3C2)c1C [compound 47, 4,5-dimethyl-6-[3-(3-pyridyl)-7,8-dihydro-5H-1,6-naphthyridin-6-yl]pyridazine-3-carbonitrile]	81	136	
Cc1cc(Nc2cnc3c(c2)CN(c2ncc(C#N)cc2C)CC3)n(C(C)C)n1 [Example 316, 6-(3-((1-isopropyl-3-methyl-1H-pyrazol-5-yl)amino)-7,8-dihydro-1,6-naphthyridin-6(5H)-yl)-5-methylnicotinonitrile]	57	689	
Cc1nc(C)c(C)c(N2CCc3ncc(Nc4cccnc4F)cc3C2)n1 [compound 240, N-(2-fluoropyridin-3-yl)-6-(2,5,6-trimethylpyrimidin-4-yl)-5,6,7,8-tetrahydro-1,6-naphthyridin-3-amine]	61	154	
Cc1cc(C(=O)NCc2ccc(Cl)nc2)cnc1N1CCc2ncc(-c3cn(C)nc3C)cc2C1 [Example 481, N-((6-chloropyridin-3-yl)methyl)-6-(3-(1,3-dimethyl-1H-pyrazol-4-yl)-7,8-dihydro-1,6-naphthyridin-6(5H)-yl)-5-methylnicotinamide]	58	1060	
Cc1cc(C(=O)NCc2ccc[nH]2)cnc1N1CCc2ncccc2C1 [compound 163, 6-(7,8-dihydro-5H-1,6-naphthyridin-6-yl)-5-methyl-N-(1H-pyrrol-2-ylmethyl)pyridine-3-carboxamide]	65	2660	
Fc1ncccc1Nc1cnc2c(c1)CN(c1nc(Cl)nc3c1COC3)CC2 [compound 289, 6-(2-chloro-5,7-dihydrofuro[3,4-d]pyrimidin-4-yl)-N-(2-fluoropyridin-3-yl)-5,6,7,8-tetrahydro-1,6-naphthyridin-3-amine]		918	
Cc1c(C(=O)NCc2ccncc2)nnc(N2CCc3ncccc3C2)c1C [compound 135, 6-(7,8-dihydro-5H-1,6-naphthyridin-6-yl)-4,5-dimethyl-N-(4-pyridylmethyl)pyridazine-3-carboxamide]	84	1800	
COc1ccc(-c2cnc3c(c2)CN(c2nc(C)nc(C)c2C)CC3)cn1 [compound 230, 3-(6-methoxypyridin-3-yl)-6-(2,5,6-trimethylpyrimidin-4-yl)-5,6,7,8-tetrahydro-1,6-naphthyridine]	65	279	
